Laboratory results from patent US20240116885A1, “BENZOTHIAZOLE AND QUINOLINE DERIVATIVES AND THEIR USE” (Shanghai Yao Yuan Biotechnology Co., Ltd., priority 2020, published 2024).

What was measured:
[1] = target: ALPK1 (Homo sapiens (Human), UniProt Q96QP1); assay: ALPK1 in vitro kinase assay (HTRF, TIFA phosphorylation); format: biochemical; conditions: ADP-Heptose activated ALPK1
Protocol: ALPK1 kinase activity was measured in an in vitro assay using ADP-Heptose as the ALPK1 ligand and activator of its kinase activity and TIFA protein as the ALPK1 phosphorylation substrate. Since phosphorylated TIFA proteins oligomerize, Homogeneous Time-Resolved Fluorescence (HTRF) was used to measure protein:protein interaction between HA-tagged TIFA proteins as an indicator of TIFA phosphorylation.
In brief, dose-response studies were performed with HEK293 cells cultured in Dulbecco's Modified Eagle Medium (DMEM) supplemented 10% fetal bovine serum (FBS, Hyclone™) containing antibiotics (pen/strep, G418) in 384-well assay plates. Each well contained 0.1 mg TIFA, ALPK1 (2 nM final concentration in reaction mixture) and kinase buffer (100 mM of HEPES pH 7.4, 4 mM DTT, 40 mM MgCl2, 20 mM of β-Glycerol phosphate disodium salt, 0.4 mM of Na3VO4, 0.16 mg/mL). Titrations of the test compounds were prepared in dimethylsulphoxide (DMSO). The reaction was initiated by addition of ATP and ADP-Heptose.
For HTRF, samples were incubated with a Tb cryptate-labeled anti-HA antibody for capturing HA-tagged proteins according to the manufacturer's instructions (PerkinElmer™, CisBio™) and the fluorescence signal was quantified (Tecan Infinite F NANO+). HTRF signals were calculated as the HTRF ratio (ratio of fluorescence measured at 665 nm and 620 nm)×104 (thereby using the signal at 620 nm as an internal standard).
IC50 values were determined using 3- or 4-parameter logistic equation using GraphPad Prism version 6.00. The reference compound, A027, was used as a positive control for each plate.

[2] = system: ALPK1-dependent NFκB reporter gene activation; assay: NFκB gene reporter alkaline phosphatase assay in HEK293 G9 cells; format: cell-based; conditions: Homo sapiens; HEK293 G9 cells stimulated with D-glycero-D-manno-6-fluoro-heptose-1β-S-ADP
Protocol: An alkaline phosphatase reporter assay system was used to measure inhibition of ALPK1-dependent NFκB reporter gene activation. Briefly, HEK293 cells stably expressing an NF-kB reporter (referred to herein as “G9 cells”) were maintained in DMEM as described above. For the assay, cells were seeded into 96-well plates at a density of 10,000 cells/well in Freestyle™ 293 Expression Medium (ThermoFisher), and allowed to attach overnight. Cells were pretreated with serially diluted compounds for 30 min and then stimulated with D-glycero-D-manno-6-fluoro-heptose-1β-S-ADP. […] NFkB gene activation was detected using the chromogenic substrate, para-nitrophenyl phosphate (pNPP) according to the manufacturer's protocols (pNPP Phosphatase Assay, Beyotime Biotechnology).

Sequence of ALPK1 (Q96QP1 whole entry): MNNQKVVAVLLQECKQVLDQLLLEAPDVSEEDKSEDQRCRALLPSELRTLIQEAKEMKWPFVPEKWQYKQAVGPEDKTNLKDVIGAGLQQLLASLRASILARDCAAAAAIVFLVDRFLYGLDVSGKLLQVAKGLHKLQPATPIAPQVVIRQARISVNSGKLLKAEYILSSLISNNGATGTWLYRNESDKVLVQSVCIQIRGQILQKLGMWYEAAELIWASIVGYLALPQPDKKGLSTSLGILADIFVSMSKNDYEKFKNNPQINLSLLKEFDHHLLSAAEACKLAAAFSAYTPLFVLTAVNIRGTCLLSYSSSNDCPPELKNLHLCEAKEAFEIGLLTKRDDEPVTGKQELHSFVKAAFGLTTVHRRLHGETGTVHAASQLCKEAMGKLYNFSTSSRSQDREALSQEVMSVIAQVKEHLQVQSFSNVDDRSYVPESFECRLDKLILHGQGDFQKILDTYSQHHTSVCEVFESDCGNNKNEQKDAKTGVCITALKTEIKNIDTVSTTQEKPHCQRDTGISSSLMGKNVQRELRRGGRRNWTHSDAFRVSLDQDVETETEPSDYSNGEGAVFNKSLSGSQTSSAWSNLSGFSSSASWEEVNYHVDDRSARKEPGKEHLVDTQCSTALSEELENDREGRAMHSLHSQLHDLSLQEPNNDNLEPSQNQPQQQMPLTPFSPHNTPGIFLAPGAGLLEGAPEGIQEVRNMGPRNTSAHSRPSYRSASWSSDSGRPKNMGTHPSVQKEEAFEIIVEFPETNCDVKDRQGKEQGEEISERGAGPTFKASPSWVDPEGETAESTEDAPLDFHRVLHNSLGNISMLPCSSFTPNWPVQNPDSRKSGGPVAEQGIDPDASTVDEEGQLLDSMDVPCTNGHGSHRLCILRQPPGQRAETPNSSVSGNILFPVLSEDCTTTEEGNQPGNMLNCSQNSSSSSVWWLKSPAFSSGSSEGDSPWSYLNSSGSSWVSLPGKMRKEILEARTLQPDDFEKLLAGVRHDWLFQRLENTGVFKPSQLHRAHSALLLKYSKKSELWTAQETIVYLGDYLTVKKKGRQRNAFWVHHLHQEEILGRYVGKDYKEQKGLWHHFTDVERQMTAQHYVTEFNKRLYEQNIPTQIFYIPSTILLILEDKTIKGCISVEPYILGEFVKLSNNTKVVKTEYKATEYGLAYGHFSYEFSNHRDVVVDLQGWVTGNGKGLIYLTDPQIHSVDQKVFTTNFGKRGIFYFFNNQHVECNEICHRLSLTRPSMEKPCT

`COc1cccc2sc(NC(=O)c3c(F)cc(N4CCN(CCO)CC4)cc3F)nc12` [Compound T025, 2,6-difluoro-4-(4-(2-hydroxyethyl)piperazin-1-yl)-N-(4-methoxybenzo[d]thiazol-2-yl)benzamide] was tested, and the IC50 [1] was 0.148 µM and the IC50 [2] was 2.92 µM.

With `COc1cccc2sc(NC(=O)c3c(F)cc(N4CCC(N)C4)cc3F)nc12` (stereo not shown) [Compound T026, 4-(3-aminopyrrolidin-1-yl)-2,6-difluoro-N-(4-methoxybenzo[d]thiazol-2-yl)benzamide] the IC50 [1] was 0.125 µM and the IC50 [2] was 2.38 µM.

With `COc1cccc2sc(NC(=O)c3c(F)cc(N4CCC(O)C4)cc3F)nc12` (stereo not shown) [Compound T027, 2,6-difluoro-4-(3-hydroxypyrrolidin-1-yl)-N-(4-methoxybenzo[d]thiazol-2-yl)benzamide] the IC50 [1] was 1.17 µM and the IC50 [2] was 3.65 µM.

`COc1cccc2sc(NC(=O)c3c(F)cc(N4CCC(O)CC4)cc3F)nc12` [Compound T028, 2,6-difluoro-4-(4-hydroxypiperidin-1-yl)-N-(4-methoxybenzo[d]thiazol-2-yl)benzamide] gave an IC50 [1] of 0.248 µM and an IC50 [2] of 1.49 µM.

With `COc1cccc2sc(NC(=O)c3c(F)cc(OCCO)cc3F)nc12` [Compound T029, 2,6-difluoro-4-(2-hydroxyethoxy)-N-(4-methoxybenzo[d]thiazol-2-yl)benzamide] the IC50 [1] was 0.56 µM and the IC50 [2] was 2.99 µM.

`COc1cc(F)cc2sc(NC(=O)c3c(F)cc(N4CCNCC4)cc3F)nc12` [Compound T030, 2,6-difluoro-N-(6-fluoro-4-methoxybenzo[d]thiazol-2-yl)-4-(piperazin-1-yl)benzamide] was tested, and the IC50 [1] was 0.318 µM and the IC50 [2] was 2.22 µM.

With `O=C(Nc1nc2c(Br)cccc2s1)c1c(F)cc(N2CCNC(CO)C2)cc1F` (stereo not shown) [Compound T033, N-(4-bromobenzo[d]thiazol-2-yl)-2,6-difluoro-4-(3-(hydroxymethyl)piperazin-1-yl)benzamide] the IC50 [1] was 0.038 µM and the IC50 [2] was 1.33 µM.

Work on `Cc1cc(Cl)cc2sc(NC(=O)c3c(F)cc(N4CCNCC4)cc3F)nc12` [Compound T038, N-(6-chloro-4-methylbenzo[d]thiazol-2-yl)-2,6-difluoro-4-(piperazin-1-yl)benzamide] yielded an IC50 [1] of 0.255 µM and an IC50 [2] of 9.98 µM.

With `COc1cccc2sc(NC(=O)c3c(F)cc(C(=O)N4CCNCC4)cc3F)nc12` [Compound T040, 2,6-difluoro-N-(4-methoxybenzo[d]thiazol-2-yl)-4-(piperazine-1-carbonyl)benzamide] the IC50 [1] was 0.341 µM and the IC50 [2] was 6.33 µM.

Compound `COc1cc(Cl)cc2sc(NC(=O)c3c(F)cc(N4CCNCC4)cc3F)nc12` [Compound T043, N-(6-chloro-4-methoxybenzo[d]thiazol-2-yl)-2,6-difluoro-4-(piperazin-1-yl)benzamide] has an IC50 [1] of 0.401 µM and an IC50 [2] of 3.98 µM.

`CN1CCN(c2cc(F)c(C(=O)Nc3nc4c(Br)cccc4s3)c(F)c2)CC1` [Compound T044, N-(4-bromobenzo[d]thiazol-2-yl)-2,6-difluoro-4-(4-methylpiperazin-1-yl)benzamide] showed an IC50 [1] of 0.013 µM and an IC50 [2] of 1.09 µM.

`O=C(Nc1nc2c(O)cccc2s1)c1c(F)cc(N2CCNCC2)cc1F` [Compound T045, 2,6-difluoro-N-(4-hydroxybenzo[d]thiazol-2-yl)-4-(piperazin-1-yl)benzamide] was tested, and the IC50 [1] was 1.65 µM and the IC50 [2] was 4.15 µM.

`O=C(Nc1nc2c(Cl)cccc2s1)c1c(F)cc(N2CCNCC2)cc1F` [Compound T046, N-(4-chlorobenzo[d]thiazol-2-yl)-2,6-difluoro-4-(piperazin-1-yl)benzamide] gave an IC50 [1] of 0.056 µM and an IC50 [2] of 1.32 µM.

In the case of `C#Cc1cccc2sc(NC(=O)c3c(Cl)cc(N4CCNCC4)cc3Cl)nc12` [Compound T048, 2,6-dichloro-N-(4-ethynylbenzo[d]thiazol-2-yl)-4-(piperazin-1-yl)benzamide], the IC50 [1] is reported as 0.009 µM and the IC50 [2] is reported as 7.13 µM.

In the case of `CC#Cc1cccc2sc(NC(=O)c3c(F)cc(N4CCNCC4)cc3F)nc12` [Compound T049, 2,6-difluoro-4-(piperazin-1-yl)-N-(4-(prop-1-yn-1-yl)benzo[d]thiazol-2-yl)benzamide], the IC50 [1] is reported as 0.043 µM and the IC50 [2] is reported as 2.1 µM.

In the case of `C#Cc1cccc2sc(NC(=O)c3c(C)cc(N4CCNCC4)cc3F)nc12` [Compound T050, N-(4-ethynylbenzo[d]thiazol-2-yl)-2-fluoro-6-methyl-4-(piperazin-1-yl)benzamide], the IC50 [1] is reported as 0.098 µM and the IC50 [2] is reported as 0.96 µM.

Compound `C#Cc1cccc2sc(NC(=O)c3c(F)cc(N4CCNCC4C(C)C)cc3F)nc12` (stereo not shown) [Compound T051, N-(4-ethynylbenzo[d]thiazol-2-yl)-2,6-difluoro-4-(2-isopropylpiperazin-1-yl)benzamide] has an IC50 [1] of 0.056 µM and an IC50 [2] of 1.59 µM.

`C#Cc1cccc2sc(NC(=O)c3c(F)cc(N4CCNCC4CC)cc3F)nc12` (stereo not shown) [Compound T052, 4-(2-ethylpiperazin-1-yl)-N-(4-ethynylbenzo[d]thiazol-2-yl)-2,6-difluorobenzamide] was tested, and the IC50 [1] was 0.058 µM and the IC50 [2] was 1.32 µM.

With `C#Cc1cccc2sc(NC(=O)c3c(F)cc(N4CC[C@@H](N)C4)cc3F)nc12` [Compound T053, (R)-4-(3-aminopyrrolidin-1-yl)-N-(4-ethynylbenzo[d]thiazol-2-yl)-2,6-difluorobenzamide] the IC50 [1] was 0.083 µM and the IC50 [2] was 0.89 µM.

For `C#Cc1cccc2sc(NC(=O)c3c(F)cc(N4CCN(C(N)=O)CC4)cc3F)nc12` [Compound T055, 4-(4-((4-ethynylbenzo[d]thiazol-2-yl)carbamoyl)-3,5-difluorophenyl)piperazine-1-carboxamide], the IC50 [1] was 0.126 µM and the IC50 [2] was 2.15 µM.

For `C#Cc1cccc2sc(NC(=O)c3c(F)cc(N4CCNCC4C)cc3F)nc12` (stereo not shown) [Compound T059, N-(4-ethynylbenzo[d]thiazol-2-yl)-2,6-difluoro-4-(2-methylpiperazin-1-yl)benzamide], the IC50 [1] was 0.043 µM and the IC50 [2] was 0.55 µM.

`C#Cc1cccc2sc(NC(=O)c3c(F)cc(N4CCNC[C@H]4C)cc3F)nc12` [Compound T061, (R)-N-(4-ethynylbenzo[d]thiazol-2-yl)-2,6-difluoro-4-(2-methylpiperazin-1-yl)benzamide] gave an IC50 [1] of 0.03 µM and an IC50 [2] of 0.3 µM.

In the case of `C#Cc1cccc2sc(NC(=O)c3c(F)cc(N4CC[C@H](N)C4)cc3F)nc12` [Compound T062, (S)-4-(3-aminopyrrolidin-1-yl)-N-(4-ethynylbenzo[d]thiazol-2-yl)-2,6-difluorobenzamide], the IC50 [1] is reported as 0.089 µM and the IC50 [2] is reported as 0.88 µM.

Compound `C#Cc1cccc2sc(NC(=O)c3c(F)cc(N4CCOCC4)cc3F)nc12` [Compound T063, N-(4-ethynylbenzo[d]thiazol-2-yl)-2,6-difluoro-4-morpholinobenzamide] has an IC50 [1] of 0.165 µM and an IC50 [2] of 1.28 µM.

Work on `C#Cc1cccc2sc(NC(=O)c3c(F)cc(N4CCN(Cc5ccc(F)cc5)CC4)cc3F)nc12` [Compound T065, N-(4-ethynylbenzo[d]thiazol-2-yl)-2,6-difluoro-4-(4-(4-fluorobenzyl)piperazin-1-yl)benzamide] yielded an IC50 [1] of 0.182 µM and an IC50 [2] of 6.58 µM.

For `C#Cc1cccc2sc(NC(=O)c3c(F)cc(-n4ccnc4)cc3F)nc12` [Compound T066, N-(4-ethynylbenzo[d]thiazol-2-yl)-2,6-difluoro-4-(1H-imidazol-1-yl)benzamide], the IC50 [1] was 0.367 µM and the IC50 [2] was 1.56 µM.
